# In ChEMBL document CHEMBL3734731 (Medchemcomm, 2015):
# pEC50, pIC50: −log10 of the molar value. Numbered stars: 1 amine (or outer) side, 2 acyl side, 3 side chain; on linkers, the order of the positions; unused ones are H or OH. Square brackets hold non-standard residues; d marks the D form. Peptide text beside a SMILES is read from it. * marks the point of attachment. NMeW = CN[C@@H](Cc1c[nH]c2ccccc12)C(=O)O; X2 = NS(=O)(=O)N[C@@H](CC(=O)O)C(=O)*; NMeY = CN[C@@H](Cc1ccc(O)cc1)C(=O)O; X1 = NC(=O)N[C@@H](CC(=O)O)C(=O)*; NMeF = CN[C@@H](Cc1ccccc1)C(=O)O; NMeI = CC[C@H](C)[C@H](NC)C(=O)O; Aad = N[C@@H](CCCC(=O)O)C(=O)O; NMeD = CN[C@@H](CC(=O)O)C(=O)O; Methoxyoxalyl = COC(=O)C(=O)*; NMeL = CN[C@@H](CC(C)C)C(=O)O; Suc = O=C(CCC(=O)[*:2])[*:1]; NMeV = CN[C@H](C(=O)O)C(C)C; Oxamoyl = NC(=O)C(=O)*; CONHOH = O=C(NO)*
# Key:
# [1] = molecular target: T1, Substance-K receptor (Homo sapiens, UniProt P21452); assay: Displacement of [125I]-NKA from NK2 receptor (unknown origin) expressed in CHO cells by scintillation counter; assay type: cell-based
# T1 sequence (P21452 whole entry): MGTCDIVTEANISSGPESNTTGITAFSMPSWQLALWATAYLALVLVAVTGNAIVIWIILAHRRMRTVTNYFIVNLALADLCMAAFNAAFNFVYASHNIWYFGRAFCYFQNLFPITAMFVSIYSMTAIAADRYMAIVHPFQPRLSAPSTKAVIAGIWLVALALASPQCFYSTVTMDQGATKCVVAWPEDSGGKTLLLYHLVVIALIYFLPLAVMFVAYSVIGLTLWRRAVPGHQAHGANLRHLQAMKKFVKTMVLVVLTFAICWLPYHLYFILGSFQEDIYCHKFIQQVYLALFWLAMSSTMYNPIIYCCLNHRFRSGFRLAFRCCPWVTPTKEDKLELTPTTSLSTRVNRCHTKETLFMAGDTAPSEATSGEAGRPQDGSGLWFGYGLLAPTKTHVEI
# [2] = molecular target: T2, Neuromedin-K receptor (Homo sapiens, UniProt P29371); assay: Agonist activity at human NK3 receptor expressed in CHO cells assessed as calcium influx relative to 100 nM senktide; assay type: functional, cell-based
# T2 sequence (P29371 whole entry): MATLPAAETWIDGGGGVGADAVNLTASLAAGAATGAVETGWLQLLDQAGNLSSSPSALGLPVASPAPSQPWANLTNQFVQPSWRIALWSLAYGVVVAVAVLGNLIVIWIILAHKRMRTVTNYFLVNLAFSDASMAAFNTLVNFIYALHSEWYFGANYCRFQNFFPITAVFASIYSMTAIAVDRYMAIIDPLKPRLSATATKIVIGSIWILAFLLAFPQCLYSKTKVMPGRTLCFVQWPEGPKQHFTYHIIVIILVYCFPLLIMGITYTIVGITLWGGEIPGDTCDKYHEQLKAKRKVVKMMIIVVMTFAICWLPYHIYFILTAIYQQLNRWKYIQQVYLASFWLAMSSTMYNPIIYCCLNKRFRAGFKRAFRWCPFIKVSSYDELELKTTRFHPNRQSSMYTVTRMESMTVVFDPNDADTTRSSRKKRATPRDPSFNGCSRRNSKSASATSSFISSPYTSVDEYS
# [3] = molecular target: Substance-P receptor (Homo sapiens, UniProt P25103); assay: Displacement of [125I]-BH-SP from NK1 receptor (unknown origin) expressed in CHO cells by scintillation counter; assay type: cell-based
# Chain of Substance-P receptor (P25103 whole entry): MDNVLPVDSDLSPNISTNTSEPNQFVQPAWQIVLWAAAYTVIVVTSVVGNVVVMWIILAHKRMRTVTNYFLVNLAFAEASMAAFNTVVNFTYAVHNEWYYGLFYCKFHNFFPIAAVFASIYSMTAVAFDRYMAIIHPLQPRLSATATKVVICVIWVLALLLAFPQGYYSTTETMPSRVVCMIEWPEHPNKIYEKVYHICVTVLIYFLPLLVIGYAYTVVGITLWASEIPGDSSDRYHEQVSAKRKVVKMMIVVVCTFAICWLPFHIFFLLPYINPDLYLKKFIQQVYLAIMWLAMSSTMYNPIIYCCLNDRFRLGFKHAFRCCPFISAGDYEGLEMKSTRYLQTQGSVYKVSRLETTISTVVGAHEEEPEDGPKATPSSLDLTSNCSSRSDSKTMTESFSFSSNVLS
# [4] = molecular target: T2, Neuromedin-K receptor; assay: Displacement of ([125I]His3-MePhe7)-NKB from NK3 receptor (unknown origin) expressed in CHO cells by scintillation counter; assay type: cell-based
# [5] = molecular target: T3, Neuromedin-K receptor (Homo sapiens) (UniProt P29371); assay: Potency index, ratio of IC50 for […] to IC50 for test compound for binding affinity to NK3 receptor (unknown origin)
# T3 sequence (whole entry): T2 sequence (P29371 whole entry)
# [6] = molecular target: T3, Neuromedin-K receptor (Homo sapiens); assay: Potency index, ratio of EC50 for […] to EC50 for test compound for agonist activity at human NK3 receptor
SMILES,pIC50 [1],pEC50 [2],pIC50 [3],pIC50 [4],Ratio IC50 [5],Ratio EC50 [6]
CSCC[C@H](NC(=O)[C@H](CC(C)C)NC(=O)CNC(=O)[C@H](Cc1ccccc1)N(C)C(=O)[C@H](Cc1ccccc1)NC(=O)[C@H](CC(=O)O)NS(N)(=O)=O)C(N)=O (X2-F[NMeF]GLM-NH2),< 5.00,11.60,< 5.00,8.25,–,–
CSCC[C@H](NC(=O)[C@H](CC(C)C)NC(=O)CNC(=O)[C@H](C(C)C)N(C)C(=O)[C@H](Cc1ccccc1)NC(=O)[C@H](CC(=O)O)NC(=O)CCC(=O)O)C(N)=O (Suc-DF[NMeV]GLM-NH2),< 5.00,10.19,< 5.00,6.98,–,–
CSCC[C@H](NC(=O)[C@H](CC(C)C)NC(=O)CNC(=O)[C@H](Cc1ccccc1)N(C)C(=O)[C@H](Cc1ccccc1)NC(=O)[C@H](CC(=O)O)NC(=O)NN)C(N)=O,< 5.00,11.22,< 5.00,7.47,–,–
CSCC[C@H](NC(=O)[C@H](CC(C)C)NC(=O)CNC(=O)[C@H](Cc1ccccc1)N(C)C(=O)[C@H](Cc1ccccc1)NC(=O)[C@H](CC(=O)O)NC(N)=O)C(N)=O (X1-F[NMeF]GLM-NH2),< 5.00,10.89,< 5.00,7.41,–,–
CSCC[C@H](NC(=O)[C@H](CC(C)C)NC(=O)CNC(=O)[C@H](Cc1ccccc1)N(C)C(=O)[C@H](Cc1ccccc1)NC(=O)[C@@H](CCC(=O)O)NC(=O)CCC(=O)O)C(N)=O,< 5.00,10.08,< 5.00,7.62,–,–
CSCC[C@H](NC(=O)[C@H](CC(C)C)NC(=O)CNC(=O)[C@H](Cc1ccccc1)N(C)C(=O)[C@H](Cc1ccccc1)NC(=O)[C@H](CCC(=O)O)NC(=O)[C@@H](CC(=O)O)NC(C)=O)C(N)=O,< 5.00,10.92,< 5.00,7.89,3,2
CSCC[C@H](NC(=O)[C@H](CC(C)C)NC(=O)CNC(=O)[C@H](Cc1ccccc1)N(C)C(=O)[C@H](Cc1ccccc1)NC(=O)[C@@H](CC(=O)O)NC(=O)CCC(=O)O)C(N)=O,< 5.00,–,–,–,–,–
CSCC[C@H](NC(=O)[C@H](CC(C)C)NC(=O)CNC(=O)[C@H](Cc1ccccc1)N(C)C(=O)[C@H](Cc1ccccc1)NC(=O)[C@H](CC(=O)O)NC(=O)NO)C(N)=O ({CONHOH}-DF[NMeF]GLM-NH2),< 5.00,10.37,< 5.00,8.00,–,–
CSCC[C@H](NC(=O)[C@H](CC(C)C)NC(=O)CNC(=O)[C@H](Cc1ccccc1)N(C)C(=O)[C@H](Cc1ccccc1)NC(=O)[C@H](CC(=O)O)NC(=O)[C@H](CC(=O)O)NC(C)=O)C(N)=O,< 5.00,10.51,< 5.00,7.17,–,–
CSCC[C@H](NC(=O)[C@H](CC(C)C)NC(=O)CNC(=O)[C@H](Cc1ccccc1)N(C)C(=O)[C@H](Cc1ccccc1)NC(=O)[C@H](CCC(=O)O)NC(=O)[C@H](CC(=O)O)NC(C)=O)C(N)=O,< 5.00,11.09,< 5.00,8.11,5,3
CSCC[C@H](NC(=O)[C@H](CC(C)C)NC(=O)CNC(=O)[C@H](Cc1ccccc1)N(C)C(=O)[C@H](Cc1ccccc1)NC(=O)[C@@H](CCC(=O)O)NC(=O)[C@H](CC(=O)O)NC(C)=O)C(N)=O,< 5.00,10.74,< 5.00,7.43,–,–
CSCC[C@H](NC(=O)[C@H](CC(C)C)NC(=O)CNC(=O)[C@H](CC(=O)O)N(C)C(=O)[C@H](Cc1ccccc1)NC(=O)[C@H](CC(=O)O)NC(=O)CCC(=O)O)C(N)=O (Suc-DF[NMeD]GLM-NH2),–,–,–,< 5.00,–,–

# Continued, values first:
pIC50 [1],pEC50 [2],pIC50 [3],pIC50 [4],Ratio IC50 [5],Ratio EC50 [6],SMILES
< 5.00,10.96,< 5.00,8.10,–,–,CSCC[C@H](NC(=O)[C@H](CC(C)C)NC(=O)CNC(=O)[C@H](Cc1ccccc1)N(C)C(=O)[C@H](Cc1ccccc1)NC(=O)[C@H](CC(=O)O)NC(=O)C(N)=O)C(N)=O (Oxamoyl-DF[NMeF]GLM-NH2)
< 5.00,10.20,< 5.00,6.76,–,–,CSCC[C@H](NC(=O)[C@H](CC(C)C)NC(=O)CNC(=O)[C@H](Cc1ccccc1)N(C)C(=O)[C@H](Cc1ccccc1)NC(=O)[C@H](CC(=O)O)NC(=O)[C@@H](N)CC(=O)O)C(N)=O (H-DDF[NMeF]GLM-NH2)
< 5.00,10.08,< 5.00,8.44,10,–,CSCC[C@H](NC(=O)[C@H](CC(C)C)NC(=O)CNC(=O)[C@H](Cc1ccccc1)N(C)C(=O)[C@H](Cc1ccccc1)NC(=O)[C@H](CC(=O)O)NC(=O)C(=O)O)C(N)=O
< 5.00,10.66,< 5.00,8.46,10,–,CSCC[C@H](NC(=O)[C@H](CC(C)C)NC(=O)CNC(=O)[C@H](Cc1ccccc1)N(C)C(=O)[C@H](Cc1ccccc1)NC(=O)[C@@H](CC(=O)O)NC(=O)C(=O)O)C(N)=O
< 5.00,10.52,< 5.00,8.21,–,2,CSCC[C@H](NC(=O)[C@H](CC(C)C)NC(=O)CNC(=O)[C@H](Cc1ccccc1)N(C)C(=O)[C@H](Cc1ccccc1)NC(=O)[C@H](CCC(=O)O)NC(=O)CCC(=O)O)C(N)=O
< 5.00,10.30,< 5.00,7.04,–,–,CC[C@H](C)[C@@H](C(=O)NCC(=O)N[C@@H](CC(C)C)C(=O)N[C@@H](CCSC)C(N)=O)N(C)C(=O)[C@H](Cc1ccccc1)NC(=O)[C@H](CC(=O)O)NC(=O)CCC(=O)O (Suc-DF[NMeI]GLM-NH2)
< 5.00,10.62,< 5.00,7.08,–,–,CSCC[C@H](NC(=O)[C@H](CC(C)C)NC(=O)CNC(=O)[C@H](Cc1ccccc1)N(C)C(=O)[C@H](Cc1ccccc1)NC(=O)[C@@H](CC(=O)O)NC(=O)[C@H](CC(=O)O)NC(C)=O)C(N)=O
< 5.00,10.77,< 5.00,7.26,–,–,CSCC[C@H](NC(=O)[C@H](CC(C)C)NC(=O)CNC(=O)[C@H](Cc1ccccc1)N(C)C(=O)[C@H](Cc1ccccc1)NC(=O)[C@@H](CC(=O)O)NC(=O)[C@@H](CC(=O)O)NC(C)=O)C(N)=O
< 5.00,10.48,< 5.00,6.91,–,–,CSCC[C@H](NC(=O)[C@H](CC(C)C)NC(=O)CNC(=O)[C@H](Cc1c[nH]c2ccccc12)N(C)C(=O)[C@H](Cc1ccccc1)NC(=O)[C@H](CC(=O)O)NC(=O)CCC(=O)O)C(N)=O (Suc-DF[NMeW]GLM-NH2)
< 5.00,10.77,< 5.00,7.17,–,–,CSCC[C@H](NC(=O)[C@H](CC(C)C)NC(=O)CNC(=O)[C@H](Cc1ccccc1)N(C)C(=O)[C@H](Cc1ccccc1)NC(=O)[C@@H](CCC(=O)O)NC(=O)[C@@H](CC(=O)O)NC(C)=O)C(N)=O
< 5.00,10.39,< 5.00,7.55,–,–,CSCC[C@H](NC(=O)[C@H](CC(C)C)NC(=O)CNC(=O)[C@H](Cc1ccc(O)cc1)N(C)C(=O)[C@H](Cc1ccccc1)NC(=O)[C@H](CC(=O)O)NC(=O)CCC(=O)O)C(N)=O (Suc-DF[NMeY]GLM-NH2)
< 5.00,10.72,< 5.00,8.00,–,2,CSCC[C@H](NC(=O)[C@H](CC(C)C)NC(=O)CNC(=O)[C@H](Cc1ccccc1)N(C)C(=O)[C@H](Cc1ccccc1)NC(=O)[C@H](CCCC(=O)O)NC(=O)CCC(=O)O)C(N)=O (Suc-[Aad]F[NMeF]GLM-NH2)
< 5.00,11.54,< 5.00,8.39,–,–,COC(=O)C(=O)N[C@@H](CC(=O)O)C(=O)N[C@@H](Cc1ccccc1)C(=O)N(C)[C@@H](Cc1ccccc1)C(=O)NCC(=O)N[C@@H](CC(C)C)C(=O)N[C@@H](CCSC)C(N)=O (Methoxyoxalyl-DF[NMeF]GLM-NH2)
–,–,–,< 5.00,–,–,CSCC[C@H](NC(=O)[C@H](CC(C)C)NC(=O)CNC(=O)[C@H](CC(C)C)N(C)C(=O)[C@H](Cc1ccccc1)NC(=O)[C@H](CC(=O)O)NC(=O)CCC(=O)O)C(N)=O (Suc-DF[NMeL]GLM-NH2)
< 5.00,10.74,< 5.00,7.14,–,–,CSCC[C@H](NC(=O)[C@H](CC(C)C)NC(=O)CNC(=O)[C@H](Cc1ccccc1)N(C)C(=O)[C@H](Cc1ccccc1)NC(=O)[C@H](CC(=O)O)NC(=O)[C@@H](CC(=O)O)NC(C)=O)C(N)=O
